From patent US20040229246A1, “Diagnostic markers for therapeutic treatment” (Can-Fite Biopharam Ltd., priority 2002, published 2004)

What was measured:
[1] = system: A3AR, GSK-3β, cyclin D1, c-myc; assay: Western blot of regulatory proteins in HCT-116 tumor lesions excised from mice; type: in vivo
Method: (§1) To detect the level of expression of the A3AR proteins Western blot analysis was performed. Cells were incubated in the presence and absence of IB-MECA (10 nM), MRS1523 (10 nM), Forskolin (50 nM), 8 Br cAMP (100 μM), Cycloheximide 20 μg/ml or MG 132 (20 nM) for different time periods at 37° C. Cells were then rinsed with ice-cold PBS and transferred to ice-cold lysis buffer (TNN buffer, 50 mM Tris buffer pH=7.5, 150 mM NaCl, NP 40). In the experiment examining the effect of trypsin on A3AR expression, cells were incubated with 0.5 ml of 0.25% trypsin for 5 minutes. The trypsinized cells were washed again with ice-cold PBS, harvested by centrifugation and subjected to lysis in TNN buffer. Cell debris was removed by centrifugation for 10 minutes, at 7500 xg. The supernatant was utilized for Western Blot analysis. Protein concentrations were determined using the Bio-Rad protein assay dye reagent. Equal amounts of the sample (50 μg) were separated by SDS-PAGE, using 12% polyacrylamide gels. The resolved proteins were then electroblotted onto nitrocellulose membranes (Schleicher & Schuell, Keene, NH, USA). Membranes were blocked with 1% bovine serum albumin and incubated with the desired primary antibody (dilution 1:1000) for 24 hours at 4° C. Blots were then washed and incubated with a secondary antibody for 1 hour at room temperature. Bands were recorded using BCIP/NBT color development kit (Promega, Madison, W1, USA). Data presented in the different figures are representative of at least three different experiments.
(§2) Colon Carcinoma: Nude/BalbC male, 10-week-old mice were used. HCT-116 Human colon carcinoma cells (1.2×10^6 cells in 100 μL PBS) were inoculated subcutaneously to the flank of the mice. Treatment was initiated when tumors reached a size of ˜150 mm^3. Each group contained 10 mice, the control group treated with vehicle only, while the test group was administered daily orally with IB-MECA (10 μg/kg).
(§3) After 32 days the mice were sacrificed, tumor lesions were excise and protein was extracted for measurements as described above. Tumor size was evaluated by measuring with a caliber width (W) and length (L) and calculated according to the above formula.

[2] = system: HCT-116 human colon carcinoma; assay: HCT-116 human colon carcinoma development in mice; type: in vivo; conditions: mice inoculated with HCT-116, 10 μg/kg orally daily
Method: as §2, §3

[3] = system: A3AR, NF-κB, c-myc, cyclin D1; assay: Immunoblot analysis of proteins extracted from prostate carcinoma (PC-3) cells; type: cell-based
Method: as §1
The effect of IB-MECA on key proteins downstream to A3AR activation in prostate carcinoma cells was also examined in a manner similar to that performed with melanoma cells (see above).

A3AR = biological target: T1, A3AR (Mus musculus, UniProt Q61618); assay: Western blot analysis of A3AR protein in B16-F10 melanoma cells; type: cell-based; conditions: B16-F10 melanoma cells, Western blot
T1 construct: endogenous in cells; host or cells: B16-F10 melanoma cells
T1 sequence (Q61618 1-319): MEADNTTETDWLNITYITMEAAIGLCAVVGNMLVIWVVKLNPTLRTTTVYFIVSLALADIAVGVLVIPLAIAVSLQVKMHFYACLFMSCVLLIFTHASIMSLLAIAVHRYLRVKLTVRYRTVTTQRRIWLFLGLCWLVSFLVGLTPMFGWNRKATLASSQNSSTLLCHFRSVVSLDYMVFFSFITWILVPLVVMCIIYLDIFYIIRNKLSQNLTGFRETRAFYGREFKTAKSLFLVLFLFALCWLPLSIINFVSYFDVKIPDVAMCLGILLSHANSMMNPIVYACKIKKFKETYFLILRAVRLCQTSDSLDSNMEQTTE
Method: as §1
Receptor internalization by treating melanoma cells with trypsin, which removes the cell surface receptor, was examined.
Time dependent expression of A3AR in the melanoma cells was examined by Western blot analysis.

In the case of CNC(=O)[C@H]1O[C@@H](n2cnc3c(NCc4cccc(I)c4)ncnc32)[C@H](O)[C@@H]1O [IB-MECA, 1-deoxy-1-[6[[(3-iodophenyl)methyl]amino]-9H-purine-9-yl]-N-methyl-β-D-ribofura-nuronaminde], the A3AR level [1] is reported as “down-regulation”, the GSK-3β expression level [1] is reported as “up-regulation” and the c-myc level [1] is reported as “decrease”. For the same compound, the “cyclin D1 level” value [1] was “decrease”, the “development of colon carcinoma (tumor size)” value [2] was “markedly suppressed” and the A3AR level [3] was “down-regulation”. For the same compound, the NF-κB level [3] was “down-regulation”, the c-myc level [3] was “down-regulation” and the “cyclin D1 level” value [3] was “down-regulation”. For the same compound, the “time dependent expression of A3AR” value (A3AR; different time points) was “sinusoidal pattern” and the A3AR protein level (A3AR; versus untreated cells) was “down-regulated”.
